The record followed here is patent US6660728B2, “Thienyl substituted acylguanidines as inhibitors of bone resorption and vitronectin receptor antagonists” (Aventis Pharma Deutschland GmbH, priority 1998, dated 2003).

SMILES strings stand for the structures. Some results are limits rather than exact numbers.

Series [1] has as its target T1, Human Vitronectin Receptor (VnR) αvβ3 (Homo sapiens, UniProt P05106+P06756).
T1 construct: Human vitronectin receptor was isolated from human placenta using the method of Pytela et al; from tissue; host or cells: human placenta
Nature of the series: K/VnR test: inhibition of the binding of kistrin to human vitronectin receptor (ELISA).

T1 sequence (P06756 31-889 limits assumed): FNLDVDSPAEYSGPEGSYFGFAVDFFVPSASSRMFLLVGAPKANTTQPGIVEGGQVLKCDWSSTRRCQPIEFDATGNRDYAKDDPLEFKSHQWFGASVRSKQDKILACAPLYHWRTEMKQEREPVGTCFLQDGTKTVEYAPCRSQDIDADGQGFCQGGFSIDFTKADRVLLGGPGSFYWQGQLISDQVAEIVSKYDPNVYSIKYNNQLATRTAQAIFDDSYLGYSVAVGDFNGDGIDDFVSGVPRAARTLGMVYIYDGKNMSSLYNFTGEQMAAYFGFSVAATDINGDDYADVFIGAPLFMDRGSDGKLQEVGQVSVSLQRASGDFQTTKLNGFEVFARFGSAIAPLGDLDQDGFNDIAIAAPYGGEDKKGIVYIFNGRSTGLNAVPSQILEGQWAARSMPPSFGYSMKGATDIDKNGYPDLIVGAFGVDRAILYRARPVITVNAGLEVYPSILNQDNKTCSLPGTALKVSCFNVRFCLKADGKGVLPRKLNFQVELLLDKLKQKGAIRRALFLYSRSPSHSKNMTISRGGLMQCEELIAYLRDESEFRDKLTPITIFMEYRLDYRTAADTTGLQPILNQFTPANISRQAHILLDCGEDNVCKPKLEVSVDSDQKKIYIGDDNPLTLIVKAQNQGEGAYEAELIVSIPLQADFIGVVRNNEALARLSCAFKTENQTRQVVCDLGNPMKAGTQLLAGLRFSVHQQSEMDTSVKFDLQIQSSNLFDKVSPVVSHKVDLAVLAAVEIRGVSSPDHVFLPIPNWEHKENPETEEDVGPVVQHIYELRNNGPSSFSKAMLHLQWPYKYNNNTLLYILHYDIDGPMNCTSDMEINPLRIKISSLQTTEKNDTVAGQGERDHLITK
T1 sequence (P06756 891-1048 limits assumed): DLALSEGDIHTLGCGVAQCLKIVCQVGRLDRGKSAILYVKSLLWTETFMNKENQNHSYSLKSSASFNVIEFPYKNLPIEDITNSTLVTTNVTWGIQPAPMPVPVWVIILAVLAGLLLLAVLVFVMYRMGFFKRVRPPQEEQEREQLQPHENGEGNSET
T1 sequence (P05106 27-788): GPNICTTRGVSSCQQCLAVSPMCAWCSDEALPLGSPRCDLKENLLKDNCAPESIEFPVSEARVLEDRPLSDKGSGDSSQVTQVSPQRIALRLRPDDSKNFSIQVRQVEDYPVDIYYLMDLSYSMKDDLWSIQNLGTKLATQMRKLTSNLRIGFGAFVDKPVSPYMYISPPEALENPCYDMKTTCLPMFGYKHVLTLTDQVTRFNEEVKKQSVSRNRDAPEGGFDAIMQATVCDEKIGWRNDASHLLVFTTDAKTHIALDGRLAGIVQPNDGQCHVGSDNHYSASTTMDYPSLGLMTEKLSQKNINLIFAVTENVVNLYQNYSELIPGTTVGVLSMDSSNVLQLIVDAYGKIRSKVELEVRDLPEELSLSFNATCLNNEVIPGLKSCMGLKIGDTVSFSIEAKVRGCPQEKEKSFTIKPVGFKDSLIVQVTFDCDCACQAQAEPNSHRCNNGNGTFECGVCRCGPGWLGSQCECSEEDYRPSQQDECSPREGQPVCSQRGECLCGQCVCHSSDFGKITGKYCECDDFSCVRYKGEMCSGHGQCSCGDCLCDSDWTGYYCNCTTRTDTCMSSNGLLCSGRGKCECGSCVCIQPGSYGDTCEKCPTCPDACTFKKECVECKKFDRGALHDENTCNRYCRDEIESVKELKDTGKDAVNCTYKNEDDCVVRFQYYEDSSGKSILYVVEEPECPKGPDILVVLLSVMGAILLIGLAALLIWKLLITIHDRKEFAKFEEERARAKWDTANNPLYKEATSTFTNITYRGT

On to `CC(C)OC(=O)[C@H](CNC(=O)c1ccc(CCC(=O)NC2=NCCCN2)s1)NC(=O)OCC12CC3CC(CC(C3)C1)C2`, for which the melting point is 160 °C (dec.).
For `CC(C)COC(=O)[C@H](CNC(=O)c1ccc(CCC(=O)NC2=NCCCN2)s1)NC(=O)OCC12CC3CC(CC(C3)C1)C2`, the melting point is 210 °C (dec.).
On the same count and under the same terms, to `O=C(O)C[C@H](NC(=O)c1ccc(CCC(=O)NC2=NCCCN2)s1)c1ccc2c(c1)OCO2` belongs 130 °C.
`O=C(/C=C/c1ccc(C(=O)NC[C@H](NC(=O)OCc2ccccc2)C(=O)O)s1)NC1=NCCCN1` [Example 14, (2S)-2-Benzyloxycarbonylamino-3-((5-(2-(1,4,5,6-tetrahydropyrimidin-2-ylcarbamoyl)-vinyl)-thiophene-2-carbonyl)-amino)-propionic Acid] returned a concentration for half-maximal inhibition (IC50) in series [1] greater than 10 µM.
